The values that follow come from patent publication US9340590B2 (priority 2011, dated 2016).

pIC50: −log10 of the molar value. Read-outs that look alike come from different tables or passages of the source. Positions of bridges follow the written chain, without caps; N, C: chain ends. Residues, ends and D or L forms follow the SMILES beside them.

Assay in all cases: cell-based
The target of experiment [1] is T1, hNav1.5 (Homo sapiens, UniProt Q14524).
Experiment [2] has as its target T1, hNav1.5. The source holds these as a separate data set.
Another experiment concerns the target hNav1.3 (Homo sapiens, UniProt Q9NY46). The settings on record: IonWorks Quattro; clamped to −110 mV, depolarized to −10 mV, 5 min after compound; n=2; read-out: IWQ Use Nav1.3. On the technique in general: In patch-clamp work, channel activity is measured electrically.
Experiment [3] deals with T2, hNav1.7 (Homo sapiens, UniProt Q15858). The following applies: Nav1.7 Use IC50.
Experiment [4] has as its target T2, hNav1.7. The experiment is classed as cell-based.
The mark [5] stands for this setting: IonWorks Quattro, clamped to −110 mV, depolarized to −10 mV, 5 min after compound, n=2, read-out: IWQ Use Nav1.5.
[6] abbreviates: IonWorks Quattro, clamped to −110 mV, depolarized to −10 mV, 5 min after compound, n=2, read-out: IWQ Use Nav1.7.

Chain of hNav1.3 (Q9NY46 whole entry, looked up): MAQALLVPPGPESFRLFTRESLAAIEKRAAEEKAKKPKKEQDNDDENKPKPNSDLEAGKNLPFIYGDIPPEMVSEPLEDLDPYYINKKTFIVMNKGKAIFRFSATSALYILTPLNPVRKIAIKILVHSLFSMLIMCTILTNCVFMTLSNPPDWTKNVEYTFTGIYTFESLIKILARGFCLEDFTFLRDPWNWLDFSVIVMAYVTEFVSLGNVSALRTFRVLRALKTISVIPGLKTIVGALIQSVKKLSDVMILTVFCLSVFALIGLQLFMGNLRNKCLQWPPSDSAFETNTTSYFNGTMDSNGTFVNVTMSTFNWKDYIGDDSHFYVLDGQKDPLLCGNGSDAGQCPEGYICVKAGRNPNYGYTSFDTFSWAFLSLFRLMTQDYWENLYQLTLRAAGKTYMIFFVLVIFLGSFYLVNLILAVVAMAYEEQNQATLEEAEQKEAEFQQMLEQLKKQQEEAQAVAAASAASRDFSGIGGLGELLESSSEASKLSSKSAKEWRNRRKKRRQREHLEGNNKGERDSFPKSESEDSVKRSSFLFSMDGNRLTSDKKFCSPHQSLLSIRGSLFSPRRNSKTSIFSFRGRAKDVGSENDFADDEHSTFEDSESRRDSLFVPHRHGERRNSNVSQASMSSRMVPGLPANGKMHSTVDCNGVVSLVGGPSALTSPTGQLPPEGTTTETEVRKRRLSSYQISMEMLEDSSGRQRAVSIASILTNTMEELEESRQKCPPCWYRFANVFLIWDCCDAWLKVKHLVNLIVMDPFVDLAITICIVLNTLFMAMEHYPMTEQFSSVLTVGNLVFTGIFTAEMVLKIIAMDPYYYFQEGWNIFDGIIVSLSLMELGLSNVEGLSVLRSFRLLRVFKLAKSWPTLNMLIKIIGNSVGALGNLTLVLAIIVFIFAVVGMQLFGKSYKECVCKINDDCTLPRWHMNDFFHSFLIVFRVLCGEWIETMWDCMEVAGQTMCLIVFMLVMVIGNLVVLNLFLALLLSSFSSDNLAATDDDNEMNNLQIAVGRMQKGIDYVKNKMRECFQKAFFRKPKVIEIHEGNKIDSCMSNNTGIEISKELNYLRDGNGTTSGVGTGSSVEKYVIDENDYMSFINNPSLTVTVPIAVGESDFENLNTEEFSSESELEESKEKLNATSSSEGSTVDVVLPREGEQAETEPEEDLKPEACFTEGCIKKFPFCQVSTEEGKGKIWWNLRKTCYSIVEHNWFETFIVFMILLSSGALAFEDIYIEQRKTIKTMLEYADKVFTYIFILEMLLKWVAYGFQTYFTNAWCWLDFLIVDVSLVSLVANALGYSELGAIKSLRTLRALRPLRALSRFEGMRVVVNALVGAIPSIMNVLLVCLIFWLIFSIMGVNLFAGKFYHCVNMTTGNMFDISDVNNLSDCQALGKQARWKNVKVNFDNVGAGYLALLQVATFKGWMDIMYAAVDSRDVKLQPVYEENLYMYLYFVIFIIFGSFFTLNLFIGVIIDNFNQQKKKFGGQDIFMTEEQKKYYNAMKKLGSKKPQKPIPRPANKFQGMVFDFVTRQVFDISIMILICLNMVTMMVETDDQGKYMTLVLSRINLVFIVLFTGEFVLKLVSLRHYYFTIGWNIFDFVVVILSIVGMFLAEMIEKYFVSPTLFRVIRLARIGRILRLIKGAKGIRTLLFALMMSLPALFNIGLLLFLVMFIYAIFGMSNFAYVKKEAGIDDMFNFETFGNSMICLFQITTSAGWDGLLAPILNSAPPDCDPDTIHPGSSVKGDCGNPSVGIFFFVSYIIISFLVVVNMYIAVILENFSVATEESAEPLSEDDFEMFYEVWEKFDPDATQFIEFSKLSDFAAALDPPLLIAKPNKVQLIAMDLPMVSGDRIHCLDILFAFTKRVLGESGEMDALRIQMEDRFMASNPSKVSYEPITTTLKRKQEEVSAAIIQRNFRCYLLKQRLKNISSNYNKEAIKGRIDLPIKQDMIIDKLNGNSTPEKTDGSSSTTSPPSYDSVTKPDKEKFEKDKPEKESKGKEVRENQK
T2 sequence (Q15858 whole entry, looked up): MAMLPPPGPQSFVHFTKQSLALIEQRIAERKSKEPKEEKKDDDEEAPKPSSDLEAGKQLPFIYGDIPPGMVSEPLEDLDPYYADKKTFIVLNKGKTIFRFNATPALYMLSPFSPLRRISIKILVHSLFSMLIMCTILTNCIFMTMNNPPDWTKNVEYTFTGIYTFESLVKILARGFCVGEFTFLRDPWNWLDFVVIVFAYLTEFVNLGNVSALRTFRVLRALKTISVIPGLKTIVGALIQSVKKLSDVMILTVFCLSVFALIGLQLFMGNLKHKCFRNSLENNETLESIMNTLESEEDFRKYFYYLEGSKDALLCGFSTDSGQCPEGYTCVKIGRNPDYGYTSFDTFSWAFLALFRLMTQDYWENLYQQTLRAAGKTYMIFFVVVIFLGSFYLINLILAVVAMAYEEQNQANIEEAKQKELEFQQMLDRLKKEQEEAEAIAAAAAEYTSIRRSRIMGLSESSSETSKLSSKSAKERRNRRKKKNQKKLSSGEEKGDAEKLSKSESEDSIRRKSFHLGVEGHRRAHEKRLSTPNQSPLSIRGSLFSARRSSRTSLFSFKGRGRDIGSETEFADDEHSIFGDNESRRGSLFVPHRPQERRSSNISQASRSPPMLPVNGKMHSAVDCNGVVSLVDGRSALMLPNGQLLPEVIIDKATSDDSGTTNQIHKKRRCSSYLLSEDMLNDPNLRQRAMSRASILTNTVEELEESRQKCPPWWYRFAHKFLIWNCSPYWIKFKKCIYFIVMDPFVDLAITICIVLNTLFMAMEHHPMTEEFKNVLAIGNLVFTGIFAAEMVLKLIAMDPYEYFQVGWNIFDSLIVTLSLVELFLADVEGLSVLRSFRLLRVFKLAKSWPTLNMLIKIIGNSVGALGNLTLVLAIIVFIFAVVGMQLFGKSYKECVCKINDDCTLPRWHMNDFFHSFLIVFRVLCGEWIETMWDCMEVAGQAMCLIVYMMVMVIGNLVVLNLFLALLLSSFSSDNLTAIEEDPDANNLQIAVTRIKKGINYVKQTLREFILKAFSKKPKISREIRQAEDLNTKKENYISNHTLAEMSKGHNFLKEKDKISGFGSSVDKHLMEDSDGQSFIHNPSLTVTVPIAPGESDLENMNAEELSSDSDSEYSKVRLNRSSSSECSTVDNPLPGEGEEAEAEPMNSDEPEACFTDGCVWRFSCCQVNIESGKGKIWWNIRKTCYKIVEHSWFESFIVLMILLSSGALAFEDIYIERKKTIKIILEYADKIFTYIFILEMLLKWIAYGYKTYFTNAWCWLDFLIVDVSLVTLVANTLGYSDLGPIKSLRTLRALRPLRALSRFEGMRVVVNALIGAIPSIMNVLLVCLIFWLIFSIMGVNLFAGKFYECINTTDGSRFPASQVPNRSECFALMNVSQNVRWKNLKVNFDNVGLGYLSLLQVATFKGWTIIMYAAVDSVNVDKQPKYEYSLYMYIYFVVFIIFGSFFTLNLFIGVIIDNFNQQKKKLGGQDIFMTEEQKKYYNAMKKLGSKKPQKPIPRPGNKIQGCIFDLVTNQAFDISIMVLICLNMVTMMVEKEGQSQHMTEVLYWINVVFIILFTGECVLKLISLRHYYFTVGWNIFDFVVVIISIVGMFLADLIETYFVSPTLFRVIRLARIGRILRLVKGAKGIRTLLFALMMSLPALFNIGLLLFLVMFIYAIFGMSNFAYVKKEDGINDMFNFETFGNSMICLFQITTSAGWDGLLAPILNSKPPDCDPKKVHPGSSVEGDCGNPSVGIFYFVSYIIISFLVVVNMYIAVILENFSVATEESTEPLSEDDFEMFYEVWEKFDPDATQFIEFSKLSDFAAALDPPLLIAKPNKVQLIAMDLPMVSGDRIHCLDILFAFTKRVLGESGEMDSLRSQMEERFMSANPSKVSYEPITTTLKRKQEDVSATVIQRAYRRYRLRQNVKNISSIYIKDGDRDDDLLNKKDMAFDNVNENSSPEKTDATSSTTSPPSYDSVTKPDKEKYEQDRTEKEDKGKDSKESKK

For `CC[C@H](C)[C@@H]1NC(=O)[C@@H]2CSSC[C@@H]3NC(=O)[C@H](C(C)C)NC(=O)[C@H](CC(C)C)NC(=O)[C@H](CC(N)=O)NC(=O)[C@@H]4CCCN4C(=O)[C@H](CCCNC(=N)N)NC(=O)[C@H](CSSC[C@H](NC(=O)[C@@H](N)CC(=O)O)C(=O)N[C@@H](CCC(=O)O)C(=O)NCC(=O)N[C@@H](Cc4ccccc4)C(=O)N[C@@H](CCSC)C(=O)N[C@@H](CCCNC(=N)N)C(=O)N[C@@H](CCCCN)C(=O)N2)NC(=O)[C@H](CSSC[C@@H](C(=O)N[C@@H](CCCCN)C(=O)N[C@@H](Cc2ccc(O)cc2)C(=O)N[C@H](C(=O)N[C@@H](Cc2ccccc2)C(N)=O)C(C)C)NC(=O)[C@H](Cc2c[nH]c4ccccc24)NC(=O)[C@H](CCCCN)NC(=O)[C@H](Cc2cnc[nH]2)NC(=O)[C@H]([C@@H](C)O)NC(=O)[C@H](CCCNC(=N)N)NC(=O)[C@H](CO)NC3=O)NC(=O)[C@H](CCCCN)NC(=O)[C@H](CC(=O)O)NC(=O)[C@H](CC(N)=O)NC(=O)[C@H](CC(=O)O)NC(=O)[C@@H]2CCCN2C1=O` [SEQ ID NO: 19] (H-DCEGFMRKCIPDNDKCCRPNLVCSRTHKWCKYVF-NH2; disulfide 2-17, 9-23, 16-30), the pIC50 on hNav1.5 [1] (setting [5]) was 4.98; on hNav1.5 [2], < 5.00; at hNav1.3, 6.08; at hNav1.7 [3], 7.39.

With `CC[C@H](C)[C@@H]1NC(=O)[C@@H]2CSSC[C@@H]3NC(=O)[C@H](C(C)C)NC(=O)[C@H](CC(C)C)NC(=O)[C@H](CC(N)=O)NC(=O)[C@@H]4CCCN4C(=O)[C@H](CCCNC(=N)N)NC(=O)[C@H](CSSC[C@H](NC(=O)[C@@H](N)CC(=O)O)C(=O)N[C@@H](C)C(=O)NCC(=O)N[C@@H](Cc4ccccc4)C(=O)N[C@@H](CCSC)C(=O)N[C@@H](CCCNC(=N)N)C(=O)N[C@@H](CCCCN)C(=O)N2)NC(=O)[C@H](CSSC[C@@H](C(=O)N[C@@H](CCCCN)C(=O)N[C@@H](Cc2ccc(O)cc2)C(=O)N[C@H](C(=O)N[C@@H](Cc2ccccc2)C(N)=O)C(C)C)NC(=O)[C@H](Cc2c[nH]c4ccccc24)NC(=O)[C@H](CCCCN)NC(=O)[C@H](Cc2cnc[nH]2)NC(=O)[C@H]([C@@H](C)O)NC(=O)[C@H](CCCNC(=N)N)NC(=O)[C@H](CO)NC3=O)NC(=O)[C@H](CCCCN)NC(=O)[C@H](CC(=O)O)NC(=O)[C@H](CC(N)=O)NC(=O)[C@H](CC(=O)O)NC(=O)[C@@H]2CCCN2C1=O` [SEQ ID NO: 21] (H-DCAGFMRKCIPDNDKCCRPNLVCSRTHKWCKYVF-NH2; disulfide 2-17, 9-23, 16-30), the pIC50 against hNav1.5 [1] (IWQ Use Nav1.5) was 4.72; at hNav1.5 [2], < 5.00; at hNav1.7 [4] (setting [6]), 6.29; at hNav1.3, 7.00; against hNav1.7 [3] it was 7.92.

Turning to `CC[C@H](C)[C@@H]1NC(=O)[C@@H]2CSSC[C@@H]3NC(=O)[C@H](C(C)C)NC(=O)[C@H](CC(C)C)NC(=O)[C@H](CC(N)=O)NC(=O)[C@@H]4CCCN4C(=O)[C@H](CCCNC(=N)N)NC(=O)[C@H](CSSC[C@H](NC(=O)[C@H](CC(=O)O)NC(=O)[C@H](C)N)C(=O)N[C@@H](CC(C)C)C(=O)NCC(=O)N[C@@H](Cc4ccccc4)C(=O)N[C@@H](CCSC)C(=O)N[C@@H](CCCNC(=N)N)C(=O)N[C@@H](CCCCN)C(=O)N2)NC(=O)[C@H](CSSC[C@@H](C(=O)N[C@@H](CCCCN)C(=O)N[C@@H](Cc2ccc(O)cc2)C(=O)N[C@H](C(=O)N[C@@H](Cc2ccccc2)C(N)=O)C(C)C)NC(=O)[C@H](Cc2c[nH]c4ccccc24)NC(=O)[C@H](CCCCN)NC(=O)[C@H](Cc2c[nH]cn2)NC(=O)[C@H]([C@@H](C)O)NC(=O)[C@H](CCCNC(=N)N)NC(=O)[C@H](CO)NC3=O)NC(=O)[C@H](CCCCN)NC(=O)[C@H](CC(=O)O)NC(=O)[C@H](CC(N)=O)NC(=O)[C@H](CC(=O)O)NC(=O)[C@@H]2CCCN2C1=O` [SEQ ID NO: 100], the pIC50 at hNav1.5 [1] (setting [5]) is 4.71; on hNav1.5 [2] it was 5.00; on hNav1.7 [4] (read-out: IWQ Use Nav1.7), 6.43; on hNav1.3, 6.49; against hNav1.7 [3], 7.92.

With `CC[C@H](C)[C@@H]1NC(=O)[C@@H]2CSSC[C@@H]3NC(=O)[C@H](C(C)C)NC(=O)[C@H](CC(C)C)NC(=O)[C@H](CC(N)=O)NC(=O)[C@@H]4CCCN4C(=O)[C@H](CCCNC(=N)N)NC(=O)[C@H](CSSC[C@H](NC(=O)[C@@H](N)CC(=O)O)C(=O)N[C@@H](CC(C)C)C(=O)NCC(=O)N[C@@H](Cc4ccccc4)C(=O)N[C@@H](Cc4c[nH]c5ccccc45)C(=O)N[C@@H](CCCNC(=N)N)C(=O)N[C@@H](CCCCN)C(=O)N2)NC(=O)[C@H](CSSC[C@@H](C(=O)N[C@@H](CCCCN)C(=O)N[C@@H](Cc2ccc(O)cc2)C(=O)N[C@H](C(=O)N[C@@H](Cc2ccccc2)C(N)=O)C(C)C)NC(=O)[C@H](Cc2c[nH]c4ccccc24)NC(=O)[C@H](CCCCN)NC(=O)[C@H](Cc2cnc[nH]2)NC(=O)[C@H]([C@@H](C)O)NC(=O)[C@H](CCCNC(=N)N)NC(=O)[C@H](CO)NC3=O)NC(=O)[C@H](CCCCN)NC(=O)[C@H](CC(=O)O)NC(=O)[C@H](CC(N)=O)NC(=O)[C@H](CC(=O)O)NC(=O)[C@@H]2CCCN2C1=O` [SEQ ID NO: 170] (H-DCLGFWRKCIPDNDKCCRPNLVCSRTHKWCKYVF-NH2; disulfide 2-17, 9-23, 16-30), the pIC50 on hNav1.5 [1] (setting [5]) was 5.45; against hNav1.5 [2] it was 5.43; on hNav1.7 [4] it was 7.89; at hNav1.3, 8.70; against hNav1.7 [3], 7.66.

Consider `CC[C@H](C)[C@@H]1NC(=O)[C@@H]2CSSC[C@@H]3NC(=O)[C@H](C(C)C)NC(=O)[C@H](CC(C)C)NC(=O)[C@H](CC(N)=O)NC(=O)[C@@H]4CCCN4C(=O)[C@H](CCCNC(=N)N)NC(=O)[C@H](CSSC[C@H](NC(=O)[C@@H](N)CC(=O)O)C(=O)N[C@@H](CC(C)C)C(=O)NCC(=O)N[C@@H](Cc4ccccc4)C(=O)N4CCC[C@H]4C(=O)N[C@@H](CCCNC(=N)N)C(=O)N[C@@H](CCCCN)C(=O)N2)NC(=O)[C@H](CSSC[C@@H](C(=O)N[C@@H](CCCCN)C(=O)N[C@@H](Cc2ccc(O)cc2)C(=O)N[C@H](C(=O)N[C@@H](Cc2ccccc2)C(N)=O)C(C)C)NC(=O)[C@H](Cc2c[nH]c4ccccc24)NC(=O)[C@H](CCCCN)NC(=O)[C@H](Cc2c[nH]cn2)NC(=O)[C@H]([C@@H](C)O)NC(=O)[C@H](CCCNC(=N)N)NC(=O)[C@H](CO)NC3=O)NC(=O)[C@H](CCCCN)NC(=O)[C@H](CC(=O)O)NC(=O)[C@H](CC(N)=O)NC(=O)[C@H](CC(=O)O)NC(=O)[C@@H]2CCCN2C1=O` [SEQ ID NO: 283] (H-DCLGFPRKCIPDNDKCCRPNLVCSRTHKWCKYVF-NH2; disulfide 2-17, 9-23, 16-30), for which the pIC50 was 5.00 at hNav1.5 [1] (setting [5]); 5.00 on hNav1.5 [2]; 6.10 at hNav1.7 [4] (setting [6]); 6.12 on hNav1.3; 7.38 at hNav1.7 [3].

With `CC[C@H](C)[C@@H]1NC(=O)[C@@H]2CSSC[C@@H]3NC(=O)[C@H](C(C)C)NC(=O)[C@H](CC(C)C)NC(=O)[C@H](CC(N)=O)NC(=O)[C@@H]4CCCN4C(=O)[C@H](CCCNC(=N)N)NC(=O)[C@H](CSSC[C@H](NC(=O)[C@@H](N)CC(=O)O)C(=O)N[C@@H](CC(C)C)C(=O)NCC(=O)N[C@@H](C(C)C)C(=O)N[C@@H](CC(C)C)C(=O)N[C@@H](CCCNC(=N)N)C(=O)N[C@@H](CCCCN)C(=O)N2)NC(=O)[C@H](CSSC[C@@H](C(=O)N[C@@H](CCCCN)C(=O)N[C@@H](Cc2ccc(O)cc2)C(=O)N[C@H](C(=O)N[C@@H](Cc2ccccc2)C(N)=O)C(C)C)NC(=O)[C@H](Cc2c[nH]c4ccccc24)NC(=O)[C@H](CCC(=O)O)NC(=O)[C@H](Cc2c[nH]cn2)NC(=O)[C@H]([C@@H](C)O)NC(=O)[C@H](CCCNC(=N)N)NC(=O)[C@H](CO)NC3=O)NC(=O)[C@H](CCCCN)NC(=O)[C@H](CC(=O)O)NC(=O)[C@H](CC(N)=O)NC(=O)[C@H](CC(=O)O)NC(=O)[C@@H]2CCCN2C1=O` [[Val5;Leu6;Glu28]GpTx-1(1-34)] (H-DCLGVLRKCIPDNDKCCRPNLVCSRTHEWCKYVF-NH2; disulfide 2-17, 9-23, 16-30), the pIC50 against hNav1.5 [2] was < 5.00; on hNav1.7 [3], 7.07.

Regarding `CC[C@H](C)[C@@H]1NC(=O)[C@@H]2CSSC[C@@H]3NC(=O)[C@H](C(C)C)NC(=O)[C@H](CC(C)C)NC(=O)[C@H](CC(N)=O)NC(=O)[C@@H]4CCCN4C(=O)[C@H](CCCNC(=N)N)NC(=O)[C@H](CSSC[C@H](NC(=O)[C@@H](N)CC(=O)O)C(=O)N[C@@H](CC(C)C)C(=O)NCC(=O)N[C@@H](C(C)C)C(=O)N[C@@H](CC(C)C)C(=O)N[C@@H](CCCNC(=N)N)C(=O)N[C@@H](CCCCN)C(=O)N2)NC(=O)[C@H](CSSC[C@@H](C(=O)N[C@@H](CCCCN)C(=O)N[C@@H](Cc2ccc(O)cc2)C(=O)N[C@H](C(=O)N[C@@H](Cc2ccccc2)C(N)=O)C(C)C)NC(=O)[C@H](Cc2c[nH]c4ccccc24)NC(=O)[C@H](CCCCN)NC(=O)[C@H](Cc2c[nH]cn2)NC(=O)[C@H]([C@@H](C)O)NC(=O)[C@H](CCCNC(=N)N)NC(=O)[C@H](CO)NC3=O)NC(=O)[C@H](CCCCN)NC(=O)[C@H](CC(=O)O)NC(=O)[C@H](CC(N)=O)NC(=O)[C@H](CC(=O)O)NC(=O)[C@@H]2CCCN2C1=O` [[Val5;Leu6]GpTx-1(1-34)] (H-DCLGVLRKCIPDNDKCCRPNLVCSRTHKWCKYVF-NH2; disulfide 2-17, 9-23, 16-30), the pIC50 against hNav1.5 [2] is < 5.00; on hNav1.7 [3], 6.70.
